From patent US20250352521A1, “FIXED DOSAGE ANTIBIOTIC COMPOSITIONS” (Entasis Therapeutics Limited, priority 2021, published 2025)

Key:
[1] = Bulk and tapped density analyses according to USP, with calculated compressibility index and Hausner ratio; format: physicochemical
Procedure: Bulk and tapped density analyses of DUR sodium salt were performed according to USP and the compressibility index (CI) and Hausner ratio was calculated. Typically, a material is considered to have poor flowability if the Hausner ratio is greater than 1.25 and/or if the CI is greater than 25. See e.g., Leroy A. Sherrington, Amal Sherrington, in Analytical Profiles of Drug Substances and Excipients, 1998. […] These experimental values are consistent with the observed powder adhesion.
It has now been found, however, that co-lyophilizing durlobactam sodium salt and sulbactam sodium salt improved flow properties compared to lyophilized durlobactam sodium alone. Initial experiments involved dissolving a 1:1 w/w mixture of durlobactam sodium salt and sulbactam sodium salt in water-for-injection and optimizing the bulk lyophilization conditions (per scale).

[2] = Dry powder filling / machinability trials: powder adhesion to filling equipment; format: physicochemical; conditions: machine filling of glass vials
Text: Initial attempts to formulate a fixed dosage comprised dry powder filling both DUR sodium salt and SUL sodium salt in glass vials. […] The drawback leads to unreliable and inconsistent product dosing. […] See e.g., the Exemplification section below.
Attempts to develop a commercially feasible fixed-dose combination of durlobactam and sulbactam by dry powder filling both DUR sodium salt and SUL sodium salt (as a 1:1 w/w mixture of each salt form) in glass vials were not successful because of the highly hygroscopic, poor flow properties of DUR sodium salt. […] See e.g., FIG. 1, showing the DUR sodium salt powder residue from the centralized suction and on the feeding chute observed during machinability trials. See also FIG. 2 which depicts the appearance of the DUR sodium salt powder filled product.

[3] = test system: Enterobacteriaceae; conditions: in vitro; cited from earlier work
[4] = test system: A. baumannii complex (ABC) isolates; conditions: cited from earlier work
[5] = test system: class A, C, and D β-lactamases; conditions: cited from earlier work
[6] = calculated from bulk and tapped density

Structure (SMILES)	Bulk density [1]	Flowability as indicated by Hausner ratio and CI [1]	Tapped density [1]	CI (compressibility index) [1, 6]	Hausner ratio [1, 6]	Hausner ratio ([1]; calculated from bulk and tapped density, listed as DUR sodium salt)	Powder adhesion to the parts of the filling equipment [2]	Intrinsic antibacterial activity [3]	Restoration of in vitro activity of sulbactam ([4]; in combination with sulbactam)	Intrinsic activity ([4]; in vitro, durlobactam alone)	Inhibition of β-lactamases [5]
CC1=C[C@@H]2CN(C(=O)N2OS(=O)(=O)[O-])[C@@H]1C(N)=O.[Na+] [DUR-Na salt, Durlobactam]	0.38 g/mL	extremely poor flowing material	0.61 g/mL	38%	1.6	> 1.6	significant powder adhesion	–	–	–	–
CC1=C[C@@H]2CN(C(=O)N2OS(=O)(=O)O)[C@@H]1C(N)=O [Durlobactam]	–	–	–	–	–	–	–	intrinsic antibacterial activity against some Enterobacteriaceae	restores the in vitro activity of sulbactam	no significant intrinsic activity	potent inhibition
